Data taken from ChEMBL document CHEMBL3259803, “2012 Division of medicinal chemistry award address. Trekking the cannabinoid road: a personal perspective” (J Med Chem, 2014).

Biological target: Cannabinoid receptor 2 (Homo sapiens) (UniProt P34972)
Experiment: Inhibition of [3H]CP-55940 binding to N-terminal FLAG-tagged/C-terminal 6His-tagged recombinant human CB2 receptor overexpressed in baculovirus infected insect Sf21 cells assessed as reduction of receptor Bmax at 10 nM after 1 hr relative to control

Sequence of Cannabinoid receptor 2 (Homo sapiens) (P34972 whole entry): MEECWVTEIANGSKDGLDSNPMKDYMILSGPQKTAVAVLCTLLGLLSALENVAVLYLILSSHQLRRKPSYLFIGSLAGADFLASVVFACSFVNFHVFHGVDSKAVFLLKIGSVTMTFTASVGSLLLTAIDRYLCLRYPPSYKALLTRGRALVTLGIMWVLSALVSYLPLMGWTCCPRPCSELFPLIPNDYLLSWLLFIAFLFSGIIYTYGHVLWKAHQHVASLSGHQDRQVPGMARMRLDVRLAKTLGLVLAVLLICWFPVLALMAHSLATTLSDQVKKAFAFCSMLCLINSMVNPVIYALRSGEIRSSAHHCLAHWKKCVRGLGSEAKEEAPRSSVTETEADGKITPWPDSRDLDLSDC

CC(C)(CCCCCCN=C=S)c1ccc2c(c1)OC(C)(C)[C@@H]1CC[C@@H](CO)C[C@@H]21
inhibition: 75%
